Test [1] has as its system BALB/C mice, TNP-OVA sensitized. Briefly: reporter antigen popliteal lymph node (PLN) assay. It counts as in vivo, mouse. The settings on record: for average number of lymphocytes in PLNs: day 5. An excerpt:
Analysis of immune suppression. Glucocorticoid steroids such as dexamethasone or hydrocortisone are typically immune suppressive and have significant toxicities associated with their use. Immune suppression was examined in a reporter antigen popliteal lymph node assay in mice essentially as previously described (C. Goebel et al., Inflamm. Res., 45(Suppl. 2):S85-S90, 1996; R. Pieters et al., Environmental Health Perspectives 107(Suppl. 5):673-677,1999). […] In this protocol, the vehicle was 0.1% carboxymethylcellulose, 0.9% saline, 2% tween 80 and 0.05% phenol, which contained 17α-ethynylandrost-5-ene-3β,7β,17β-triol in suspension in drug treated animals. Assessment of activity included (1) measuring suppression of numbers of total lymphocytes, antigen specific IgM, IgG1 and IgG2a antibody secreting cells (ASC) (ELISPOT assay) in popliteal lymph node cells; (2) analysis of cell surface marker (CD4, CD8, CD19, F480, CD80, CD86) expression by flow cytometry of living cells in suspension; and (3) IL-4, TNFα and IFNγ production by lymphocytes in vitro (ELISA).
Groups (n=5 per group) of specific pathogen free BALB/C mice were used. The Positive control group was treated with vehicle (oral gavage) and 5 μg/day dexamethasone by subcutaneous injection to induce immune suppression. Vehicle control animals (negative control) were treated with vehicle alone (oral gavage). One group of animals was treated with 17α-ethynylandrost-5-ene-3β,7β,17β-triol at 0.1 mg/day by oral gavage. Another group was treated with 1 mg/day of 17α-ethynylandrost-5-ene-3β,7β,17β-triol was administered to the animals oral gavage. The results were analyzed by two-tailed Student's t-test with equal variance. The animals were injected in the right hind footpad with 50 μL of freshly prepared sensitizing dose of TNP-OVA. Dexamethasone (decadron phosphate injection; dexamethasone sodium phosphate) was administered by subcutaneous injection into the nape of the neck daily, immediately following sensitization with TNP-OVA. 17α-Ethynylandrost-5-ene-3β,7β,17β-triol was given immediately afterwards by gavage. Five days after injection of TNP-OVA, blood was drawn by orbital puncture, and the mice were euthanized by cervical dislocation and popliteal lymph nodes were removed and separated from adherent fatty tissue. Single cell suspensions were prepared, resuspended in 1 mL PBS-BSA (1%) and counted. Cell numbers, IL-4, IL-5 and IFNγ were measured.

The next test relates to 11β-HSD1. Put plainly: expression of 11β-HSD1 in osteoblasts of treated mice. The settings on record: administration to mice. It counts as in vivo, mouse.
The subject of test [2] is monocyte chemoattractant protein-1 (MCP-1). Briefly: MCP-1 RNA in perigonadal fat tissue, quantitative RT/PCR. The following applies: 20 mg/kg; normalized with respect to the vehicle control. It counts as in vivo, mouse. The method, then:
In another study, total RNA from perigonadal fat tissue from lean db/+ or diabetic db/db mice treated with 20 mg/kg of 17α-ethynylandrost-5-ene-3β,7β,17β-triol was isolated and processed for quantitative RT/PCR using primers specific for monocyte chemoattractant protein-1 (MCP-1) using an iCycler iQ multicolor real time-detection system (Bio-Rad). RNA expression levels were normalized with respect to the vehicle control. […] For this study, vehicle was also administered to a control group of age matched lean heterozygous db/+ mice (n=7).

Test [3] has as its system estrogen receptor-s or estrogen receptor-s. Put plainly: interaction with estrogen receptors.
The test system of test [4] is DBA/1 mice, passive collagen-induced arthritis. Briefly: passive collagen-induced arthritis (anti-type II collagen antibodies). It counts as in vivo, mouse. The following applies: 40 mg/kg/day oral gavage for 14 days. The source says: The capacity of formula 1 compounds to affect the course of arthritis in a passive collagen induced arthritis model of arthritis was examined essentially as previously described (E. Simelyte et al., Arthritis & Rheumatism, 52(6):1876-1884, 2005; Z. Han et al. Arthritis & Rheumatism 46(3):818-823 2002; H. Miyahara et. Clin. Immunol. Immunopathol., 69(1):69-76 1993). In this protocol, passive collagen-induced arthritis was induced in DBA/1 mice by administering anti-type II collagen antibodies, which induced an immune response against joint tissue in the animals. […] The severity of arthritis was assessed using a semiquantitative clinical scoring system. Groups of 8 animals per group were treated with 17α-ethynylandrost-5-ene-3β,7β,17β-triol at 40 mg/kg/day for 14 days or vehicle for 14 days by oral gavage. The vehicle was 30% cyclodextrin-sulfobutylether in water and the drug solution was vehicle with drug at 20 mg/mL.
The animals were examined by measuring ankle thickness and arthritis score (4-point/paw) with a higher score indicating a more severe arthritis. The experiment was terminated after about 14 days, and histology and gene expression measurements were performed. […] A semi-quantitative scoring system was used to access synovial inflammation, extraarticular inflammation, erosion and proteogylcan loss. […]

Another test addresses androgen receptor (Homo sapiens, UniProt P10275). Put plainly: interaction with androgen receptor.
Test [5] concerns osteoblasts and osteocytes in murine vertebral bone. Put plainly: osteoblast and osteocyte apoptosis in ovariectomized mice (TUNEL). It counts as in vivo, mouse. The settings on record: ovariectomized Swiss Webster mice. The source says: The degree of apoptosis of osteoblasts and osteocytes in murine vertebral bone as a function of estrogen deficiency was examined. Swiss Webster mice (four months old) were ovariectomized. Twenty-eight days later, the animals were sacrificed, vertebrae were isolated, fixed and embedded, and then undecalcified in methacrylate.

A further test relates to MG-63 cells. Put plainly: reversal of glucocorticoid effects in MG-63 osteosarcoma cells. The following applies: 1 nM compound; 7 hours; 30 nM dexamethasone. It counts as cell-based, human.

Sequence of androgen receptor (P10275 whole entry, species assumed): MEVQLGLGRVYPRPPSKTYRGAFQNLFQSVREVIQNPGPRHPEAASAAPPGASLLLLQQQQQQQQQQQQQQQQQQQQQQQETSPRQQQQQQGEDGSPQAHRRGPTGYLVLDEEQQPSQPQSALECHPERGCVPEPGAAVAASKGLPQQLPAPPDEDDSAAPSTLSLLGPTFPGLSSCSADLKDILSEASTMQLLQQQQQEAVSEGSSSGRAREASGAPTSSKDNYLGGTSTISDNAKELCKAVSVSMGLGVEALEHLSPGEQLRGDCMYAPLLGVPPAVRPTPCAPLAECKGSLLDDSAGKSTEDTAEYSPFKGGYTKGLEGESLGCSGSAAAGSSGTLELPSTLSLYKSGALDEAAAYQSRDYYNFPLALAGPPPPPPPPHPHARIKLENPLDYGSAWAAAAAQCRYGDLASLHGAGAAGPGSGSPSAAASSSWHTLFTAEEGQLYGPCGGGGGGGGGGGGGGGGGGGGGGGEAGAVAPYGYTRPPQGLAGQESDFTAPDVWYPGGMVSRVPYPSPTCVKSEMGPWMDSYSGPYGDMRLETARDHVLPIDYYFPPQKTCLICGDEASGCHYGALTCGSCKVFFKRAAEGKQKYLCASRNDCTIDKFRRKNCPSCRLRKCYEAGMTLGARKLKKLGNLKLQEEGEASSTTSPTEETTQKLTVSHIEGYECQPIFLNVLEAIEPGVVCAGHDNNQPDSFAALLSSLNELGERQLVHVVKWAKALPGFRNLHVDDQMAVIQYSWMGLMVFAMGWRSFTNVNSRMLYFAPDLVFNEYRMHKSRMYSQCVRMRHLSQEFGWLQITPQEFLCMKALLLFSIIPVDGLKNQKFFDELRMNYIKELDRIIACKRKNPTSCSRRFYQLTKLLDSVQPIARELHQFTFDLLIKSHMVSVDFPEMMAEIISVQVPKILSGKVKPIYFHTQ

Regarding `C#C[C@]1(O)CC[C@H]2[C@@H]3[C@@H](O)C=C4C[C@@H](O)CC[C@]4(C)[C@H]3CC[C@@]21C` [17α-ethynylandrost-5-ene-3β,7β,17β-triol], the “average number of lymphocytes in PLNs” value in test [1] (0.1 mg/day by oral gavage) is 11.1×10^6 lymphocytes per lymph node; in test [1] (1 mg/day by oral gavage) it was 8.2×10^6 lymphocytes per lymph node. Moreover, in test [1] (compound 1.0 mg/day and 0.1 mg/day oral, dexamethasone 5 μg/day s.c.), the “IFNγ, IL-4 and IL-5 levels compared to the vehicle control group” value is listed as “increased”. In addition, the “decrease of expression of 11β-HSD1 in osteoblasts” value in the test on 11β-HSD1 is reported as “about 50%”. For the same compound, the “decrease of levels of MCP-1” value in test [2] is listed as “about 50%”. In addition, the “interaction with estrogen receptor-s or estrogen receptor-s” value in test [3] is on record as “do not interact”. The same compound displayed a maximum clinical score in test [4] (at day 7) of 5.1. In test [4] (end of the protocol), the “clinical score at day 14” value was found to be 4.1. Also, the “interaction with androgen receptor” value at androgen receptor is reported as “do not interact”. Besides, the “osteoblast and osteocyte apoptosis” value in test [5] is listed as “reduce apoptosis”. Moreover, the “reversal of the decrease in osteoprotegerin synthesis” value with MG-63 cells was “completely reversed”.

For the origin of these results see patent publication US20080153792A1, “Drug Identification and Treatment Method” (priority 2006, published 2008).
